The subject of data set [1] is isolated rat brain stem (electric-stimulated). The experiment in a line: Biogenic amines released from the rat brain stem by electrostimulation. The following applies: for Minimum dose causing to release dopamine from electric-stimulated brain stem / Minimum dose causing to release serotonin from electric-stimulated brain stem: electrostimulation; for Minimum dose causing to release noradrenaline from electric-stimulated brain stem: electrostimulation 3 Hz, 1 ms, 60 V.

Another data set concerns the target α2 receptor. The experiment in a line: Receptor affinity, 3H-rauwolscine binding. More on the design: species or system rats. To be noted: 0.7 nmol/L 3H-rauwolscine, read-out: Affinity to α2 receptor: concentration showing 50% inhibition between ligand and receptor. As for the experimental part: The receptor solution was prepared as follows. After the rats were decapitated, brain was immediately isolated and weighed. Thereafter, brain samples were homogenized in ten times volumes of ice-cold 0.35 mol/L sucrose (pH 7.4) using glass homogenizer with Teflon pestle, which was revolted by motors. The homogenate was centrifuged at 4° C. at 900×g for 10 min and the supernatant was, furthermore, recentrifuged at 4° C. at 22,000×g for 20 min. The precipitate was suspended with addition of 5 mmol/L phosphate buffer solution (pH 7.4). After the suspension was incubated at 37° C. for 30 min, the suspension was recentrifuged at 4° C. at 20,000×g for 20 min. The precipitate was resuspended in 10 ml of 5 mmol/L phosphate buffer solution (pH 8.0) to be receptor solution.
^3H-prazocin was used as a ligand. 0.25 nmol/L of ^3H-prazocin, the compounds of the invention and the receptor solution, which were respectively prepared in 5 mmol/L phosphate buffer (pH 8), were put in tube and the mixture was incubated at 25° C. for 90 min. In addition, the nonspecific binding was evaluated with binding value of ^3H-prazocin in the presence of 0.1 μmol/L prazocin. The binding assay was carried out as follows. After ^3H-prazocin (binding type: B) bound to receptor, only the binding type of ^3H-prazocin was collected using B/F separator (Brandel, USA) with glass fiber filter (pore size: 0.5 μm Whatman GF/C), and free type of prazocin (free type: F) was removed. Glass-fiber filter, absorbing the binding type of ^3H-prazocin, was washed with ice-cold saline solution and transferred to vial. After 10 ml of scintillation cocktail was put in it, the radioactivity was measured. Affinity of the compounds of the invention to α1 receptor was evaluated from the inhibition rate of binding between α1 receptor and the ligand.
Affinities of the compounds of the invention to receptors of α2, D1, D2, 5-HT1 and 5-HT2 were respectively determined in the same manner, while used 0.7 nmol/L ^3H-rauwolscine, 1.4 nmol/L ^3H-SCH-23390, 2.0 nmol/L spiperone, 2 nmol/L ^3H-5-HT and 0.5 nmol/L ^3H-ketanserin as each ligands. […]

Data set [2] concerns tetrabenazine-treated rats. The experiment in a line: Conditioned avoidance task in the shuttle box, tetrabenazine-treated rats. To be noted: for Minimum dose to cause conditioned avoidance reflexes (CARs) in tetrabenazine-treated rats in shuttle box: with tetrabenazine 1 mg/kg s.c. In kind it is in vivo, rat. As for the experimental part:
The method described in Life Sci., 58, 817-827 (1996) was used. The effects on conditioned avoidance reflex (CARs) were analyzed in the shuttle box using male and female rats (weighing 200-220 g) whose learning abilities were reduced by the administration of tetrabenazine. The instrument was constructed, according to the device described in Psychopharmacologia 10, 1-5 (1966). The male and female rats (weighing 200-220 g) were trained to cross the barrier under a conditioned stimulus. (CS, light flash and buzzer sounds). […] In addition, the unconcerned performance to this condition was noted as an intersignal reaction (IR). The rats were trained with 100 trials a day for 5 days. Each trial was carried out with 15-sec intertrial interval. Tetrabenazine saline solution was subcutaneously administered at a dose of 1 mg/kg 1 hr before the test. Then the solution of the compounds of the invention was administered at the doses of 1, 2, 2.5 and 5 mg/kg, s.c., simultaneously with tetrabenazine. The numbers of CARs, EFs and IRs were automatically counted and analyzed using one-way analysis of variance (ANOVA).
Therefore, the compound has no stimulant-like excitement.

Data set [3] has as its system primary cultured hepatocyte. The experiment in a line: Toxicity screening using primary cultured hepatocyte (LDH release). It counts as cell-based, rat. To be noted: 24 hr. As for the experimental part:
The hepatocytes was prepared from rat liver using collagenase perfusion method and the cell suspension containing 5×10^5 cells/mL were prepared. After cultivation for 24 hr, the medium was changed to the William's Medium E (GIBCO ERL) containing 10 or 100 μmol/L of the compounds of the invention. After cultivation for 24 hr, the activity of lactatedehydrogenase (LDH) released into the medium was measured.

Where a name gives a salt, the structure may show the parent alone. Read-outs that look alike come from different tables or passages of the source.

In the case of `CCCNC(CCC)Cc1cc2ccccc2o1.Cl` (single isomer, unassigned; (+)) [(+)-Isomer, (+)-1-(benzofuran-2-yl)-2-propylaminopentane hydrochloride], in data set [1], the “Minimum dose causing to release dopamine from electric-stimulated brain stem” value is 5 µg/mL, the “Minimum dose causing to release noradrenaline from electric-stimulated brain stem” value came to 0.5 µg/mL and the “Minimum dose causing to release serotonin from electric-stimulated brain stem” value was 10 µg/mL. Also, on α2 receptor (hydrochloride), the IC50 amounted to 2600 nM. Besides, in data set [2] (s.c.), the “Minimum dose to cause conditioned avoidance reflexes (CARs) in tetrabenazine-treated rats in shuttle box” value (“Minimum dose … in shuttle box” for short) is listed as 2.5 mg mg/kg. In addition, in data set [3] (10 μmol/L), the “Percent control of LDH release from primary cultured hepatocyte” value (“Percent control of LDH release” below) stood at 124.41 ± 12.54 Percent control. In addition, the “Percent control of LDH release” value in data set [3] (100 μmol/L) worked out at 116.72 ± 6.91 Percent control.

With `CCCNC(CCC)Cc1cc2ccccc2o1.Cl` (racemic) [Racemic compound, (±)-1-(benzofuran-2-yl)-2-propylaminopentane hydrochloride], in data set [1], the “Minimum dose causing to release noradrenaline from electric-stimulated brain stem” value was 5 µg/mL and the “Minimum dose causing to release serotonin from electric-stimulated brain stem” value came out at 1 µg/mL. For the same compound, at α2 receptor, the IC50 was determined as 1000 nM. Also, the “Minimum dose … in shuttle box” value in data set [2] (s.c.) is listed as 1 mg mg/kg. In addition, the “Percent control of LDH release” value in data set [3] (10 μmol/L) stood at 90.28 ± 2.85 Percent control. Further, the “Percent control of LDH release” value in data set [3] (100 μmol/L) amounted to 112.10 ± 36.98 Percent control.

For `CCCNC(CCC)Cc1cc2ccccc2o1` (single isomer, unassigned; (-)) [The compound of the invention, (−)-1-(benzofuran-2-yl)-2-propylaminopentane hydrochloride], the “Minimum dose causing to release dopamine from electric-stimulated brain stem” value in data set [1] came to 0.05 µg/mL. Also, the “Noradrenaline, serotonin and dopamine release on electrostimulation (FIG. 1)” value in data set [1] (electrostimulated brain stem) is “confirmed to enhance noradrenaline, serotonin and dopamine release”. Besides, in data set [1], the “Minimum dose causing to release noradrenaline from electric-stimulated brain stem” value was 0.01 µg/mL. In data set [1], the “Minimum dose causing to release serotonin from electric-stimulated brain stem” value stood at 0.0005 µg/mL. Also, on α2 receptor (hydrochloride), the IC50 stood at 3100 nM. Moreover, the “Minimum dose … in shuttle box” value in data set [2] (s.c.) is on record as 5 × 10^−2 mg mg/kg. Moreover, the “Reduced learning function of rats administered with tetrabenazine (FIG. 2)” value in data set [2] (shuttle box, s.c.) was “significantly improved”. For the same compound, the “Intersignal reactions (IRs)” value in data set [2] (shuttle box, tetrabenazine-treated rats) is “did not significantly change IRs”. Also, the “Percent control of LDH release” value in data set [3] (10 μmol/L, hydrochloride) is listed as 104.94 ± 4.96 Percent control; in data set [3] (10 μmol/L, listed as the compound of the invention, hydrochloride), “not increase”; in data set [3] (100 μmol/L, hydrochloride) it was 126.42 ± 8.04 Percent control; in data set [3] (100 μmol/L, listed as the compound of the invention, hydrochloride), “slightly increased LDH release”.
